This is an account of results in patent US11800842B2, “Method for obtaining adventitious tetraploid bud of Blumea balsamifera” (Tropical Crops Genetic Resources Institute, Chinese Academy …, priority 2021, dated 2023).

What all share (format): cell-based, Blumea balsamifera
The test system of experiment [1] is B. balsamifera somatic cells. The experiment in a line: Effects of different 6-BA concentrations on induction of adventitious tetraploid buds from root segments. Particulars: for Induction rate %: MS Medium with 0.05 mg/L NAA, 120 mg/L colchicine, root segment about 6.0 cm, 60 days. An excerpt:
(§1) In the examples, effective root segment refers to uncontaminated root segment; induction rate refers to the percentage of the total number of adventitious tetraploid buds formed by induction accounting for the total number of diploid explants, and the calculation formula is: induction rate (%)=(total number of adventitious tetraploid buds/total number of diploid explants)×100%. Chimera rate (%)=(total number of adventitious buds of chimera/total number of adventitious buds)×100%.
MS Medium was used as a basal medium, which was supplemented with 0.05 mg/L NAA, 120 mg/L colchicine, 30 g/L sucrose, 6 g/L agar, and 6-BA of different concentrations (0, 1.0, 1.5, and 2.0 mg/L, respectively, 0 mg/L as the control group). Culture media were prepared individually, segmented root tissues (with a root segment length of about 6.0 cm) were inoculated, and contaminated root explants were excluded after 60 days. The number of tetraploid buds was counted, and the doubling efficiency was calculated.

In experiment [2] the test system is B. balsamifera somatic cells. The experiment in a line: Effects of different colchicine concentrations on induction of adventitious tetraploid buds from root segments. The following applies: for Induction rate %: MS Medium with 1.0 mg/L 6-BA, 0.05 mg/L NAA, root segment about 4.0 cm, 60 days.
Text: as §1
MS Medium was used as a basal medium, which was supplemented with 1.0 mg/L 6-BA, 0.05 mg/L NAA, 30 g/L sucrose, 6 g/L agar, and colchicine of different concentrations (50, 70, 90, 120, and 150 mg/L, respectively). Culture media were prepared individually, and segmented root tissues (with a root segment length of about 4.0 cm) were inoculated. Chromosome ploidy identification was conducted on the formed adventitious buds after 60 days. The number of adventitious tetraploid buds was counted, and the doubling induction rate was calculated.

Experiment [3] deals with root explants of diploid B. balsamifera. Nature of the experiment: Effects of different NAA concentrations on induction of adventitious tetraploid buds from root segments. The following applies: for Induction rate %: MS Medium with 1.0 mg/L 6-BA, 120 mg/L colchicine, root segment about 4.0 cm, 60 days.
Text: as §1
MS Medium was used as a basal medium, which was supplemented with 1.0 mg/L 6-BA, 120 mg/L colchicine, 30 g/L sucrose, 6 g/L agar, and NAA of different concentrations (0, 0.025, 0.05, 0.075, and 0.1 mg/L, respectively, 0 mg/L as the control group). Culture media were prepared individually, and segmented root tissues (with a root segment length of about 4.0 cm) were inoculated. Chromosome ploidy identification was conducted on adventitious buds after 60 days. The number of adventitious tetraploid buds was counted, and the induction rate was calculated.

With `c1ccc(CNc2ncnc3nc[nH]c23)cc1` [6-BA, 6-benzylaminopurine], the “effect of inducing the doubling of the somatic cells of the root explants and dedifferentiating into adventitious tetraploid buds” value in experiment [1] (6-BA 1.0 mg/L, compared with 0, 1.5 and 2.0 mg/L) is “optimal”. Besides, the figures for the “Induction rate %” value in experiment [1] (6-BA 1.0 mg/L), in experiment [1] (6-BA 1.5 mg/L) and in experiment [1] (6-BA 2.0 mg/L) were 7.75%, 5.5% and 4.17%, respectively.

As to `COc1cc2c(c(OC)c1OC)-c1ccc(OC)c(=O)cc1[C@@H](NC(C)=O)CC2` [Colchicine, colchicine], the Induction rate % in experiment [2] (colchicine 50 mg/L) stood at 0%; in experiment [2] (colchicine 70 mg/L), 0%; in experiment [2] (colchicine 90 mg/L) it was 2.08%; in experiment [2] (colchicine 120 mg/L), 10.42%; in experiment [2] (colchicine 150 mg/L), 4.17%. The “effect of inducing root explants of diploid B. balsamifera to form adventitious tetraploid buds” value in experiment [2] (colchicine 120 mg/L, compared with 50, 70, 90 and 150 mg/L) is listed as “optimal”.

As to `O=C(O)Cc1cccc2ccccc12` [NAA, 1-naphthaleneacetic acid], the Induction rate % in experiment [3] (NAA 0.025 mg/L) is reported as 2.08%; in experiment [3] (NAA 0.05 mg/L) it was 10.42%; in experiment [3] (NAA 0.075 mg/L), 4.17%; in experiment [3] (NAA 0.1 mg/L), 3.13%. In addition, the doubling effect result in experiment [3] (NAA 0.05 mg/L, compared with 0, 0.025, 0.075 and 0.1 mg/L) is “optimal”.
